Converted amounts (≈) assume the structure as drawn.
Experiments:
[1] = test system: B. subtilis (CICC 21164); test: MIC, broth microdilution; format: cell-based; conditions: Bacillus subtilis; broth microdilution, 18 h, 37 °C; read-out: MIC B. subtilis (CICC 21164)
Experimental: MIC assays were carried out by employing the broth microdilution method in accordance with Clinical and Laboratory Standards Institute (CLSI) guidelines. E. coli BNCC337004, S. aureus BNCC336423, P. aeruginosa BNCC337099, and B. subtilis CICC 21164 were applied for the MIC detection. Mueller–Hinton broth (MHB) was used in bacterial culture, and log-phase bacteria were diluted into a 0.5 McFarland Standard suspension, which was then diluted 1000 times again. Subsequently, 100 μL of the obtained bacterial suspension was placed into each well of 96-well microtiter plates, along with 2-fold serial dilutions of compounds (512, 256, 128, 64, 32, 16, 8, 4, 2, 1, 0.5, 0 μM). The microtiter plates were incubated aerobically for 18 h at 37 °C. The MIC was defined as the lowest drug concentration at which no visible turbidity was observed. All experiments are conducted in three parallel.

[2] = test system: E. coli (ATCC 8739); test: MIC, broth microdilution; format: cell-based; conditions: Escherichia coli, ATCC8739; broth microdilution, 18 h, 37 °C; read-out: MIC E. coli (ATCC 8739)
[3] = test system: S. aureus (ATCC 6538); test: MIC, broth microdilution; format: cell-based; conditions: Staphylococcus aureus, ATCC6538; broth microdilution, 18 h, 37 °C; read-out: MIC S. aureus (ATCC 6538)
[4] = biological target: T1, S. aureus FtsZ (Staphylococcus aureus, UniProt P0A031); test: FtsZ polymerization assay (A340); format: biochemical
T1 construct: His tag; made in house; host or cells: E. coli BL21(DE3)
T1 sequence (P0A031 1-390): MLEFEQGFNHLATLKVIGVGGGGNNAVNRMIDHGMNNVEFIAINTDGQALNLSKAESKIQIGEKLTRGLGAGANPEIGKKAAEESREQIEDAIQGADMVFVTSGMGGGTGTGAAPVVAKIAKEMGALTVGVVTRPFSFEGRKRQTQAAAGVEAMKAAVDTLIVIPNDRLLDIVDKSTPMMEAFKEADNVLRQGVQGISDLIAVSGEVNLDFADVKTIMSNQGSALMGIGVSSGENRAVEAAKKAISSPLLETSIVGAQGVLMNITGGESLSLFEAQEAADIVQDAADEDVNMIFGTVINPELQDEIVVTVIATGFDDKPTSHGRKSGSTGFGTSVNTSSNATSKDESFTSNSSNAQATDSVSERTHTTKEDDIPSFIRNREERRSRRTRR
Experimental: The effect of compounds on S. aureus FtsZ polymerization was monitored by employing a microtiter plate-based spectrophotometric assay method, and the reactions were conducted in flat-bottomed 96-well microtiter plates. The degree of FtsZ polymerization was reflected by the corresponding changes in absorbance at 340 nm (A340). […] The polymerization reaction began immediately once 4 mM GTP was added, and then the polymerization was continuously monitored at 25 °C for 60 min by measuring A340 in BioTek-Synergy4 multifunctional enzyme-linked immunosorbent assay (ELISA) reader.

[5] = test system: E. Coli BL21 (DE3); test: Visualization of Z-ring in bacterial cells (GFP-tagged FtsZ); format: cell-based; conditions: 64 μM, 4 h
Experimental: The assay was carried out using a strain of E.coli BL21 (DE3) containing an IPTG-inducible plasmid, which can produce the green fluorescence protein (GFP)-tagged FtsZ to make the Z-ring visible. An overnight culture of E.coli was replated into 1 mL fresh MHB medium and incubated at 37 °C. Until OD600 = 0.3, 40 μM IPTG (Isopropyl β-D-1-thiogalactopyranoside) was added. […] After that, they were centrifuged and re-suspended in PBS, and then observed using the Leica SP-5 laser scanning confocal microscopy. Z-ring analysis was performed by employing LAS-AF-Lite software 2.6.0.

[6] = test system: P. aeruginosa (DSM 939); test: MIC, broth microdilution; format: cell-based; conditions: Pseudomonas aeruginosa, DSM939; broth microdilution, 18 h, 37 °C; read-out: MIC P. aeruginosa (DSM 939)
[7] = test system: B. subtilis; test: Phase-contrast microscopy, cell division inhibition; format: cell-based; conditions: 64 μM, 4 h
Experimental: Cell Division Inhibitory Screening Assay Cell division inhibitory activity of compounds was conducted as below. […] Afterwards, 1 mL of the sample was centrifuged at 15,000× g for 3 min at room temperature, and the bacterial pellets were washed with 1 mL of PBS before re-centrifugation. The final bacterial pellets obtained were resuspended in 5 mL PBS. 20 μL of bacterial suspension was transferred to slides for microscopy. Cell morphology was estimated by using the phase-contrast method of Olympus IX71 microscopy (Olympus Corporation, Tokyo, Japan) with 400× magnification.

[8] = biological target: T2, FtsZ (Staphylococcus aureus, UniProt P0A031); test: Sedimentation assay of FtsZ polymerization; format: biochemical; conditions: 50 μM compound, 5 μM FtsZ, 37 °C 30 min
T2 construct: His tag; made in house; host or cells: E. coli BL21(DE3)
T2 sequence (P0A031 1-390): T1 sequence (P0A031 1-390)
Experimental: Sedimentation assay was also conducted for the influence of compounds on FtsZ polymerization. FtsZ (5 μM) was polymerized in a buffer containing 25 mM Pipes buffer (pH 6.8) and 3 mM MgSO4 in the […] of DMSO or compounds (50 μM). After the addition of 4 mM GTP, the sample was instantly placed at 37 °C for 30 min. Then, the polymers were collected by centrifuging for 30 min at 25 °C. The protein concentration in the supernatant was determined using the Bradford quantification method, with bovine serum albumin (BSA) as the standard. The experiment was performed in triplicate, and the average absorbance is shown.

[9] = test system: E. coli; test: In vivo antibacterial activity, mouse peritoneal infection; set-up: species or system CD-1 male mice
Text: SPF grade CD-1 male mice weighing 30 ± 3 g were purchased from Shanghai Slake Experimental Animal Co., Ltd. (Shanghai, China). […] Immediately following this, the mice were intraperitoneally injected with the test compounds. Each experimental group consisted of five mice, with each compound being tested at two distinct concentration gradients (determined based on the minimum inhibitory concentration, MIC). A separate group received physiological saline as a negative control. The subsequent assessment focused on evaluating the therapeutic potential of these drugs against bacterial infections. On the first and third days post-administration, 2 mL of sterile physiological saline was injected into the peritoneal cavity of each mouse. After a gentle two-minute dilution under sterile conditions, the abdominal fluid was extracted for bacterial enumeration using the plate counting method. Furthermore, the clinical manifestations of each mouse group, encompassing mental status, appetite, and other relevant parameters, were meticulously observed over a seven-day period. On the seventh day, the mice were euthanized, and a thorough macroscopic examination was conducted to assess the pathological changes in various vital organs.

CC(C)(C)c1[nH]cnc1/C=c1\[nH]c(=O)/c(=C/c2ccccc2)[nH]c1=O [Compound 23, Plinabulin]
MIC [1]: 8 µM (≈ 2.69 µg/mL) | MIC [2]: 64 µM (≈ 21.5 µg/mL) | MIC [3]: 8 µM (≈ 2.69 µg/mL) | effect on FtsZ polymerization (A340) ([4]; 50 μM compound, 5 µM FtsZ, 4 mM GTP, vs DMSO): remarkable promoting effect on FtsZ polymerization | effect on FtsZ polymerization at different concentrations ([4]; 5, 10, 20 and 50 μM, initial 10 min): markedly accelerated FtsZ polymerization | Z-ring assembly [5]: disturbed the Z-ring assembly | MIC [6]: 32 µM (≈ 10.8 µg/mL) | cell morphology of B. subtilis (elongation) [7]: the most pronounced effect | effect on FtsZ sedimentation (polymerization amount) [8]: markedly enhanced protein sedimentation | bacterial count of peritoneal fluid ([9]; mice i.p. E. coli, i.p. compound, days 1 and 3): substantially mitigated | clinical presentation of infected mice ([9]; seven-day observation): exhibited vitality, maintained a healthy appetite

— paper PMC12561670, “Isolation of Dual-Active Drugs with Anticancer and Antibacterial Activities That Target Both Tubulin and FtsZ” (Antibiotics, 2025)
